# Assay results published in patent US6737383B1, “Herbicidal oxadiazolidines” (priority 1999, dated 2004).
# How the values were obtained:
# [1] = tested on: wheat; assay: Test B pre/postemergence wheat; type: in vivo, Triticum aestivum
# Summary of the method: (§1)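 Herbicidal effect was estimated by eye on a ten-point control scale after plants spent twelve to sixteen days in a greenhouse following soil or foliar treatment. Foliar sprays targeted plants at one to four leaves; all doses were formulated in a non-phytotoxic solvent with surfactant.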
# [2] = tested on: crabgrass; assay: Test B pre/postemergence crabgrass; type: in vivo, Digitaria sanguinalis
# Summary of the method: as §1
# [3] = tested on: bedstraw; assay: Test B pre/postemergence bedstraw; type: in vivo, Galium aparine; details: Postemergence, Rate 125 g/ha; scale of 0 to 10 where 0 is no effect and 10 is complete control
# Summary of the method: as §1
# [4] = tested on: pigweed; assay: Test B pre/postemergence pigweed; type: in vivo, Amaranthus retroflexus
# Summary of the method: as §1
# [5] = tested on: rice; assay: Test B flood test rice; type: in vivo, Oryza sativa
# Summary of the method: (§2)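 Each value is a visual injury score relative to controls, with 10 meaning complete control and 0 no effect. Evaluation took place twelve to sixteen days after the 2-leaf-stage plants were treated and kept in the greenhouse.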
# [6] = tested on: duck salad; assay: Test B flood test duck salad; type: in vivo, Heteranthera limosa
# Summary of the method: as §2
# [7] = tested on: blackgrass; assay: Test B pre/postemergence blackgrass; type: in vivo, Alopecurus myosuroides
# Summary of the method: as §1
# [8] = tested on: velvetleaf; assay: Test B pre/postemergence velvetleaf; type: in vivo, Abutilon theophrasti
# Summary of the method: as §1
# [9] = tested on: smallflower flatsedge; assay: Test B flood test smallflower flatsedge; type: in vivo, Cyperus difformis
# Summary of the method: as §2
# [10] = tested on: rape; assay: Test B pre/postemergence rape; type: in vivo, Brassica napus
# Summary of the method: as §1
# [11] = tested on: morningglory; assay: Test B pre/postemergence morningglory; type: in vivo, Ipomoea hederacea
# Summary of the method: as §1
# [12] = tested on: sugar beet; assay: Test B pre/postemergence sugar beet; type: in vivo, Beta vulgaris
# Summary of the method: as §1
# [13] = tested on: giant foxtail; assay: Test B pre/postemergence giant foxtail; type: in vivo, Setaria faberii
# Summary of the method: as §1
# [14] = tested on: corn; assay: Test B pre/postemergence corn; type: in vivo, Zea mays
# Summary of the method: as §1
# [15] = tested on: wild oat; assay: Test B pre/postemergence wild oat; type: in vivo, Avena fatua
# Summary of the method: as §1
# [16] = tested on: bamyardgrass; assay: Test B flood test barnyardgrass; type: in vivo, Echinochloa crus-galli
# Summary of the method: as §2
# [17] = tested on: cocklebur; assay: Test B pre/postemergence cocklebur; type: in vivo, Xanthium strumarium
# Summary of the method: as §1
# [18] = tested on: purple nutsedge; assay: Test B pre/postemergence purple nutsedge; type: in vivo, Cyperus rotundus
# Summary of the method: as §1
# [19] = tested on: soybean; assay: Test B pre/postemergence soybean; type: in vivo, Glycine max
# Summary of the method: as §1
# [20] = tested on: surinam grass; assay: Test B pre/postemergence surinam grass; type: in vivo, Brachiaria decumbens
# Summary of the method: as §1
# [21] = Postemergence, Rate 62 g/ha, scale 0 to 10, 0 is no effect, 10 is complete control
# [22] = Postemergence, Rate 125 g/ha, scale of 0 to 10 where 0 is no effect and 10 is complete control
# [23] = Preemergence, Rate 62 g/ha, scale of 0 to 10 where 0 is no effect and 10 is complete control
# [24] = Preemergence, Rate 125 g/ha, scale of 0 to 10 where 0 is no effect and 10 is complete control
# [25] = Preemergence, Rate 250 g/ha, scale 0 to 10 (0 no effect, 10 complete control)
# [26] = Preemergence, Rate 500 g/ha, scale of 0 to 10 where 0 is no effect and 10 is complete control
# [27] = Rate 500 g/ha, Postemergence, scale 0 to 10, 0 is no effect, 10 is complete control
# [28] = Postemergence, Rate 250 g/ha, scale of 0 to 10, 0 is no effect, 10 is complete control
# [29] = Rate 62 g/ha, flood test species, Pre-emergence, visual evaluation after twelve to sixteen days
# [30] = Rate 125 g/ha, under heading Pre-emergence, flood test species, visual evaluation after twelve to sixteen days
# [31] = Rate 250 g/ha, Pre-emergence (flood test species), scale 0 to 10, 0 is no effect, 10 is complete control
# [32] = Rate 500 g/ha, Pre-emergence section of Table B, 0 to 10 scale (0 no effect, 10 complete control)
smiles,measurement,setting,value
CC[C@H](C)n1c(=O)on(C(=O)N(c2ccc(F)cc2F)C(C)C)c1=O [Compound 666],"Plant response rating, Wheat",[1]; [21],0
same,Wheat plant response rating,[1]; [22],0
same,Wheat plant response rating,[1]; [23],0
same,Wheat plant response rating,[1]; [24],3
same,"Plant response rating, Wheat",[1]; [25],4
same,"Plant response rating, Wheat",[1]; [26],7
same,Wheat plant response rating,[1]; [27],3
same,"Plant response rating, Crabgrass",[2]; [21],3
same,Crabgrass plant response rating,[2]; [22],9
same,Crabgrass plant response rating,[2]; [28],9
same,Crabgrass plant response rating,[2]; [23],7
same,Crabgrass plant response rating,[2]; [24],8
same,"Plant response rating, Crabgrass",[2]; [25],9
same,"Plant response rating, Crabgrass",[2]; [26],10
same,Crabgrass plant response rating,[2]; [27],9
same,Bedstraw plant response rating,[3],0
same,"Plant response rating, Redroot pigweed",[4]; [21],0
same,Redroot pigweed plant response rating,[4]; [22],1
same,Redroot pigweed plant response rating,[4]; [23],8
same,Redroot pigweed plant response rating,[4]; [24],10
same,"Plant response rating, Redroot pigweed",[4]; [25],10
same,"Plant response rating, Redroot pigweed",[4]; [26],10
same,Redroot pigweed plant response rating,[4]; [27],6
same,"Plant response rating, Rice (0 to 10 scale, 0 is no effect, 10 is complete control)",[5]; [29],0
same,"Rice plant response rating (0 to 10 scale, 0 is no effect, 10 is complete control)",[5]; [30],0
same,Rice plant response rating,[5]; [31],0
same,Rice plant response rating,[5]; [32],0
same,"Plant response rating, Ducksalad (0 to 10 scale, 0 is no effect, 10 is complete control)",[6]; [29],0
same,"Ducksalad plant response rating (0 to 10 scale, 0 is no effect, 10 is complete control)",[6]; [30],0
same,Ducksalad plant response rating,[6]; [31],0
same,Ducksalad plant response rating,[6]; [32],0
same,"Plant response rating, Blackgrass",[7]; [21],6
same,Blackgrass plant response rating,[7]; [22],8
same,Blackgrass plant response rating,[7]; [28],8
same,Blackgrass plant response rating,[7]; [23],6
same,Blackgrass plant response rating,[7]; [24],8
same,"Plant response rating, Blackgrass",[7]; [25],9
same,"Plant response rating, Blackgrass",[7]; [26],10
same,Blackgrass plant response rating,[7]; [27],8
same,"Plant response rating, Velvetleaf",[8]; [21],0
same,Velvetleaf plant response rating,[8]; [22],2
same,Velvetleaf plant response rating,[8]; [23],5
same,Velvetleaf plant response rating,[8]; [24],6
same,"Plant response rating, Velvetleaf",[8]; [25],7
same,"Plant response rating, Velvetleaf",[8]; [26],8
same,Velvetleaf plant response rating,[8]; [27],6
same,"Plant response rating, S. Flatsedge (0 to 10 scale, 0 is no effect, 10 is complete control)",[9]; [29],0
same,"S. Flatsedge plant response rating (0 to 10 scale, 0 is no effect, 10 is complete control)",[9]; [30],0
same,S. Flatsedge plant response rating,[9]; [31],0
same,S. Flatsedge plant response rating,[9]; [32],0
same,"Plant response rating, Rape",[10]; [21],0
same,Rape plant response rating,[10]; [22],0
same,Rape plant response rating,[10]; [23],0
same,Rape plant response rating,[10]; [24],8
same,"Plant response rating, Rape",[10]; [25],10
same,"Plant response rating, Rape",[10]; [26],10
same,Rape plant response rating,[10]; [27],4
same,"Plant response rating, Morningglory",[11]; [21],0
same,Morningglory plant response rating,[11]; [22],1
same,Morningglory plant response rating,[11]; [28],7
same,Morningglory plant response rating,[11]; [23],0
same,Morningglory plant response rating,[11]; [24],0
same,"Plant response rating, Morningglory",[11]; [25],0
same,"Plant response rating, Morningglory",[11]; [26],3
same,Morningglory plant response rating,[11]; [27],7
same,"Plant response rating, Sugarbeets",[12]; [21],0
same,Sugarbeets plant response rating,[12]; [22],0
same,Sugarbeets plant response rating,[12]; [23],0
same,Sugarbeets plant response rating,[12]; [24],4
same,"Plant response rating, Sugarbeets",[12]; [25],7
same,"Plant response rating, Sugarbeets",[12]; [26],8
same,Sugarbeets plant response rating,[12]; [27],4
same,"Plant response rating, Giant foxtail",[13]; [21],2
same,Giant foxtail plant response rating,[13]; [22],8
same,Giant foxtail plant response rating,[13]; [28],8
same,Giant foxtail plant response rating,[13]; [23],9
same,Giant foxtail plant response rating,[13]; [24],10
same,"Plant response rating, Giant foxtail",[13]; [25],10
same,"Plant response rating, Giant foxtail",[13]; [26],10
same,Giant foxtail plant response rating,[13]; [27],9
same,"Plant response rating, Corn",[14]; [21],0
same,Corn plant response rating,[14]; [22],0
same,Corn plant response rating,[14]; [28],0
same,Corn plant response rating,[14]; [23],0
same,Corn plant response rating,[14]; [24],4
same,"Plant response rating, Corn",[14]; [25],8
same,"Plant response rating, Corn",[14]; [26],10
same,Corn plant response rating,[14]; [27],0
same,"Plant response rating, Wild oats",[15]; [21],0
same,Wild oats plant response rating,[15]; [22],0
same,Wild oats plant response rating,[15]; [23],5
same,Wild oats plant response rating,[15]; [24],6
same,"Plant response rating, Wild oats",[15]; [25],9
same,"Plant response rating, Wild oats",[15]; [26],9
same,Wild oats plant response rating,[15]; [27],3
same,"Plant response rating, Barnyardgrass (0 to 10 scale, 0 is no effect, 10 is complete control)",[16]; [29],0
same,"Barnyardgrass plant response rating (0 to 10 scale, 0 is no effect, 10 is complete control)",[16]; [30],0
same,Barnyardgrass plant response rating,[16]; [31],0
same,Barnyardgrass plant response rating,[16]; [32],5
same,"Plant response rating, Cocklebur",[17]; [21],0
same,Cocklebur plant response rating,[17]; [22],1
same,Cocklebur plant response rating,[17]; [28],4
same,Cocklebur plant response rating,[17]; [23],0
same,Cocklebur plant response rating,[17]; [24],0
same,"Plant response rating, Cocklebur",[17]; [25],0
same,"Plant response rating, Cocklebur",[17]; [26],0
same,Cocklebur plant response rating,[17]; [27],7
same,"Plant response rating, Nutsedge",[18]; [21],0
same,Nutsedge plant response rating,[18]; [22],0
same,Nutsedge plant response rating,[18]; [23],0
same,"Plant response rating, Nutsedge",[18]; [25],0
same,Nutsedge plant response rating,[18]; [27],0
same,"Plant response rating, Soybean",[19]; [21],4
same,Soybean plant response rating,[19]; [22],4
same,Soybean plant response rating,[19]; [23],0
same,Soybean plant response rating,[19]; [24],0
same,"Plant response rating, Soybean",[19]; [25],3
same,"Plant response rating, Soybean",[19]; [26],4
same,"Plant response rating, B. signalgrass",[20]; [21],0
same,"Plant response rating, B. signalgrass",[20]; [22],4
same,B. signalgrass plant response rating,[20]; [28],5
same,B. signalgrass plant response rating,[20]; [23],2
same,B. signalgrass plant response rating,[20]; [24],3
same,"Plant response rating, B. signalgrass",[20]; [25],7
same,"Plant response rating, B. signalgrass",[20]; [26],8
same,B. signalgrass plant response rating,[20]; [27],7
